The values below come from patent US9169279B2, “Crystallization method and bioavailability” (THAR PHARMACEUTICALS, INC., priority 2009, dated 2015).

The conditions of series [1]: room temperature.
Series [2] can be described thus: Dog PK study: zoledronic acid in serum after IV or oral capsule dosing, enteric or non-enteric coated, with or without excess coformer (LC/MS/MS). Type of series: in vivo, Beagle dogs. As to conditions: beagle, po, 56 mg, Leg 7, 56.0 mg, enteric coated capsule, PO, read-out: Average serum concentration of 5 dogs. From the text: This can be attributed to the fact that both animals have historically been used in the safety evaluation and PK screening studies and are recommended by appropriate regulatory agencies. […] Additional tests included ID administration in rats and administration of enteric coated capsules in dogs.
USA. Some animals have surgical catheters (jugular vein and intraduodenum) were implanted to the animals prior to the studies. Beagle dogs from Marshall Farms, N.Y., USA, weighing from (9-12 kg) were used in the studies presented herein. Surgical catheters (jugular vein) were implanted prior to the studies.
The dose volume of each dog was adjusted based upon the average weight of the dog. • ii. […]
Blood samples were placed without the use of an anticoagulant and allowed to sit at room temperature for approximately 30 minutes. Samples were then centrifuged at a temperature of 4° C., at a speed of 13,000 rpm, for 5 minutes. Serum was collected and split into two aliquots and stored frozen (−80° C.) until analysis.
In this study, capsules of particulate materials (zoledronic:DL-lysine:water complex and excess pure DL-lysine).

For the molecule `O.O=P(O)(O)C(O)(Cn1ccnc1)P(=O)(O)O` [ZA monohydrate], the “Aqueous solubility, Conc. mg/mL” value in series [1] was 1.57 mg/mL.

As to `NCCCCC(N)C(=O)O.O.O.O=P(O)(O)C(O)(Cn1ccnc1)P(=O)(O)O` [ZA: DL-Lysine dihydrate], the “Aqueous solubility, Conc. mg/mL” value in series [1] stood at 6.85 mg/mL.

Turning to `NCCCCC(N)C(=O)O.O.O=P(O)(O)C(O)(Cn1ccnc1)P(=O)(O)O` [ZA: DL-Lysine monohydrate], the “Aqueous solubility, Conc. mg/mL” value in series [1] was 13.9 mg/mL.

With `NCCCC[C@H](N)C(=O)O.O.O.O=P(O)(O)C(O)(Cn1ccnc1)P(=O)(O)O` [ZA: L-Lysine dihydrate], the “Aqueous solubility, Conc. mg/mL” value in series [1] was 8.22 mg/mL.

Regarding `O=P(O)(O)C(O)(Cn1ccnc1)P(=O)(O)O` [Zoledronic acid monohydrate], the concentration at 0 h in series [2] (0 h) is 0 ng/mL. The concentration at 10 min in series [2] (10 min) came out at 0 ng/mL. In addition, the concentration at 0.25 h in series [2] (0.25 h) came to 0 ng/mL. Besides, the concentration at 0.5 h in series [2] (0.5 h) came out at 0 ng/mL. Also, the concentration at 0.75 h in series [2] (0.75 h) came out at 0 ng/mL. In addition, the concentration at 1 h in series [2] (1 h) stood at 9.84 ng/mL. Moreover, the concentration at 1.5 h in series [2] (1.5 h) came to 86.1 ng/mL. Further, the concentration at 2 h in series [2] (2 h) was 109 ng/mL. Also, the concentration at 4 h in series [2] (4 h) came out at 108 ng/mL. For the same molecule, the concentration at 6 h in series [2] (6 h) was 14.2 ng/mL. Moreover, the concentration at 8 h in series [2] (8 h) was found to be 4.57 ng/mL. Moreover, the concentration at 24 h in series [2] (24 h) was found to be 0.5 ng/mL.
